The record followed here is patent publication US20240002375A1, “2-(INDAZOL-5-YL)-6-(PIPERIDIN-4-YL)-1,7-NAPHTHYRIDINE DERIVATIVES AND RELATED COMPOUNDS AS MODULATORS FOR SPLICING NUCLEIC ACIDS AND FOR THE TRE” (REMIX THERAPEUTICS INC., priority 2020, published 2024).

Holding throughout (assay type): cell-based
One assay deals with HTT mRNA. As to the kind of experiment: Splicing assay (RT-qPCR) of HTT mRNA alternative junction (AJ) and canonical junction (CJ). The gist of the method: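 A673 (adherent, 24 h pre-plating) or K562 cells treated 24 h at 37 °C with an 11-point 3-fold dilution series, top 10 uM, DMSO ≤0.25%. Lysates analysed by one-step RT-qPCR for HTT canonical (CJ) and alternative-exon (AJ) junctions, normalised to PPIA (A673) or GAPDH/GUSB (K562).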
A general note: Quantitative PCR measures a nucleic acid by following its amplification.

The test system of another assay is HTT CJ mRNA. As to the kind of experiment: Gene panel canonical junction qPCR splicing assay, HTT. The following applies: Table 4, read-out: HTT IC50 (decrease in CJ mRNA levels). A digest of the protocol: (§1)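 A673 or K562 cells treated with compound; canonical-junction mRNA measured by RT-qPCR with junction-spanning primer/probe sets, normalized to GAPDH, GUSB or PPIA and DMSO (2^−ΔΔCt). IC50 for CJ decrease from 4-parameter logistic fit of percentage response.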

The next assay has as its system Target C CJ mRNA. As to the kind of experiment: Gene panel canonical junction qPCR splicing assay, Target C. The following applies: Table 4, read-out: Target C IC50 (decrease in CJ mRNA levels). The gist of the method:
as §1

In another assay the test system is SMN2 CJ mRNA. As to the kind of experiment: Gene panel canonical junction qPCR splicing assay, SMN2. The following applies: Table 4, read-out: SMN2 IC50 (decrease in CJ mRNA levels). A digest of the protocol:
as §1

The mark [1] stands for this setting: decrease in CJ mRNA, A673 or K562 cells, 24 hours, read-out: HTT CJ IC50.
The mark [2] stands for this setting: increase in AJ mRNA, A673 or K562 cells, 24 hours, read-out: HTT AJ AC50.

The structures appear in SMILES notation. Where a name gives a salt, the structure may show the parent alone. Read-outs that look alike come from different tables or passages of the source.

In the case of `Cn1cc2cc(-c3ccc4nc(N5CC[C@H](NCC(F)(F)F)C5)ccc4n3)c(O)cc2n1` [Compound 182, 2-methyl-5-{6-[(3S)-3-[(2,2,2-trifluoroethyl)amino]pyrrolidin-1-yl]-1,5-naphthyridin-2-yl}indazol-6-ol], the IC50 – broadly, the concentration at which inhibition is half-maximal – with HTT mRNA (setting [1]) was 1000 to 10000 nM; in the assay on HTT CJ mRNA it was 1000 to 10000 nM; in the assay with Target C CJ mRNA it was more than 10000 nM; with SMN2 CJ mRNA it was 1000 to 10000 nM. The AC50 (in general, the concentration at which the activity in the assay is half-maximal) in the assay with HTT mRNA (setting [2]) is more than 10000 nM.

For the molecule `Cn1cc2cc(-c3ccc4nc(C5CCNCC5)ccc4n3)ccc2n1` [Compound 184, 2-(2-methylindazol-5-yl)-6-(piperidin-4-yl)-1,5-naphthyridine], the IC50 with HTT mRNA (setting [1]) is 1000 to 10000 nM; in the assay with HTT CJ mRNA it was 1000 to 10000 nM; with Target C CJ mRNA, 100 to 1000 nM; with SMN2 CJ mRNA, less than 100 nM. Further, the AC50 with HTT mRNA (setting [2]) lay within 100 to 1000 nM.

Turning to `Cn1cc2cc(-c3ccc4nc(C5CCNCC5)ccc4n3)cc(F)c2n1` [Compound 185, 2-(7-fluoro-2-methylindazol-5-yl)-6-(piperidin-4-yl)-1,5-naphthyridine], the IC50 in the assay with HTT mRNA (setting [1]) fell in the range of 1000 to 10000 nM; in the assay on HTT CJ mRNA, 1000 to 10000 nM; in the assay on Target C CJ mRNA, 1000 to 10000 nM; in the assay on SMN2 CJ mRNA it was 100 to 1000 nM. Further, the AC50 in the assay with HTT mRNA (setting [2]) was in the range of 1000 to 10000 nM.

`Cc1cn2nc(-c3ccc4nc(N5CCC(NC(C)(C)C)C5)ccc4n3)cc(C)c2n1` (stereo not drawn) [Compound 186, N-tert-butyl-1-(6-{2,8-dimethylimidazo[1,2-b]pyridazin-6-yl}-1,5-naphthyridin-2-yl)pyrrolidin-3-amine]: the concentration at half-maximal activity (AC50) with HTT mRNA (24 h, read-out: HTT AJ AC50 (nM)) was less than 100 nM. Further, the IC50 with HTT mRNA (24 h, read-out: HTT CJ IC50 (nM)) was less than 100 nM; in the assay with HTT CJ mRNA, less than 100 nM; in the assay on Target C CJ mRNA, less than 100 nM; in the assay with SMN2 CJ mRNA it was less than 100 nM.

On to `Cc1cn2nc(-c3ccc4nc(N5CCC(NC(C)(C)C)C5)ccc4n3)cc2c(C)n1` (stereo not drawn) [Compound 187], for which the IC50 in the assay with HTT mRNA (setting [1]), with HTT CJ mRNA, in the assay on Target C CJ mRNA and in the assay with SMN2 CJ mRNA was less than 100 nM in each case. Further, the half-maximal activity concentration (AC50) in the assay on HTT mRNA (setting [2]) was less than 100 nM.

As for `Cn1cc2cc(-c3ccc4nc(N5CC[C@@H](NC6COC6)C5)ccc4n3)c(O)cc2n1` [Compound 188], the IC50 with HTT mRNA (setting [1]) was 100 to 1000 nM; in the assay with HTT CJ mRNA it was 100 to 1000 nM; with Target C CJ mRNA, 1000 to 10000 nM; with SMN2 CJ mRNA, less than 100 nM. In addition, the concentration at half-maximal activity (AC50) in the assay with HTT mRNA (setting [2]) was in the range of 100 to 1000 nM.

Take `Cc1nc2cc(O)c(-c3ccc4nc(N5CCC(NC(C)(C)C)C5)ccc4n3)cc2s1` (stereo not drawn) [Compound 190, 6-{6-[3-(tert-butylamino)pyrrolidin-1-yl]-1,5-naphthyridin-2-yl}-2-methyl-1,3-benzothiazol-5-ol; trifluoroacetic acid]: the half-maximal inhibitory concentration (IC50) is more than 10000 nM with HTT mRNA (setting [1]), more than 10000 nM in the assay with HTT CJ mRNA, more than 10000 nM in the assay on Target C CJ mRNA and less than 100 nM with SMN2 CJ mRNA. Besides, the AC50 in the assay on HTT mRNA (setting [2]) was more than 10000 nM.

Regarding `Cc1c(O)c(-c2ccc3nc(N4CCC(NC(C)(C)C)C4)ccc3n2)cc2cn(C)nc12` (stereo not drawn) [Compound 191, 5-{6-[3-(tert-butylamino)pyrrolidin-1-yl]-1,5-naphthyridin-2-yl}-2,7-dimethylindazol-6-ol hydrochloride], the 50% inhibitory concentration (IC50) with HTT mRNA (setting [1]) is less than 100 nM; with HTT CJ mRNA, more than 10000 nM; with Target C CJ mRNA, more than 10000 nM; with SMN2 CJ mRNA, more than 10000 nM. The AC50 with HTT mRNA (setting [2]) was less than 100 nM.

With `CN1CCCC2(CCN2c2ccc3nc(-c4cc5cn(C)nc5cc4O)ccc3n2)C1` (stereo not drawn) [Compound 192, 2-methyl-5-(6-{6-methyl-1,6-diazaspiro[3.5]nonan-1-yl}-1,5-naphthyridin-2-yl) indazol-6-ol], the concentration for half-maximal inhibition (IC50) in the assay on HTT mRNA (setting [1]), in the assay with HTT CJ mRNA, in the assay with Target C CJ mRNA and in the assay with SMN2 CJ mRNA was more than 10000 nM in each case. The AC50 in the assay on HTT mRNA (setting [2]) was more than 10000 nM.

`Cn1cc2cc(-c3ccc4nc(C5CCNCC5)ccc4n3)c(F)cc2n1` [Compound 193, 2-(6-fluoro-2-methylindazol-5-yl)-6-(piperidin-4-yl)-1,5-naphthyridine]: the IC50 in the assay on HTT mRNA (setting [1]), in the assay with HTT CJ mRNA, in the assay with Target C CJ mRNA and in the assay with SMN2 CJ mRNA was 1000 to 10000 nM in each case. Also, the AC50 in the assay on HTT mRNA (setting [2]) was 1000 to 10000 nM.

Take `Cn1cc2cc(-c3ccc4nc(N5CC[C@H](NCC6CC6)C5)ccc4n3)c(O)cc2n1` [Compound 194]: the IC50 with HTT mRNA (setting [1]), with HTT CJ mRNA, in the assay on Target C CJ mRNA and in the assay with SMN2 CJ mRNA was less than 100 nM each time. Moreover, the concentration at half-maximal activity (AC50) in the assay on HTT mRNA (setting [2]) is less than 100 nM.

In the case of `Cn1cc2cc(-c3ccc4nc(N5CC[C@@H](NCC6CC6)C5)ccc4n3)c(O)cc2n1` [Compound 195], the IC50 in the assay with HTT mRNA (setting [1]) is 100 to 1000 nM; in the assay with HTT CJ mRNA, 100 to 1000 nM; with Target C CJ mRNA it was 100 to 1000 nM; in the assay on SMN2 CJ mRNA, less than 100 nM. Also, the AC50 in the assay on HTT mRNA (setting [2]) was less than 100 nM.
